Test results published in patent US11613560B2, “Bicyclic peptide ligands specific for OX40” (BicycleTx Limited, priority 2019, dated 2023).

Experiments:
OX40 = biological target: T1, OX40 (Homo sapiens, UniProt P43489); assay: Promega OX40 cell-activity assay in co-culture with tumor cells (Nectin-4 positive 4T1-D02); format: cell-based; conditions: co-culture with Nectin-4 positive 4T1-D02 cells; compared to OX40L and non-binding control BCY12968
T1 construct: host or cells: OX40 Jurkat cells (NF-kB luciferase reporter)
T1 sequence (P43489 29-277): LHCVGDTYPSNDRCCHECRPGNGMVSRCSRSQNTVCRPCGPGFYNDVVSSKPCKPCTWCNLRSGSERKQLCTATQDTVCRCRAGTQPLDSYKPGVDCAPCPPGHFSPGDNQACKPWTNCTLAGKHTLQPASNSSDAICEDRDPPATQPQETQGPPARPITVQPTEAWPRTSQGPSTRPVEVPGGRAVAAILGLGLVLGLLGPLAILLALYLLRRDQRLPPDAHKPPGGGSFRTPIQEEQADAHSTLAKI
Experimental: Promega have developed an OX40 cell-activity assay that uses NF-κB luciferase luminescence as a read-out of OX40 activation in Jurkat cells (Promega CS197704). On the day of the experiment, prepare medium by thawing FBS and adding 5% FBS to RPMI-1640. Thaw OX40 Jurkat cells in the water-bath and then add 500 μl cells to 11.5 ml pre-warmed 5 FBS RPMI-1640 medium. Add 55 μl cells/well to white cell culture plates. Harvest tumor cells from culture. 4T1 is a Nectin-4 negative murine mammary gland epithelial cancer cell and it was genetically modified to express murine Nectin-4 on the cell surface (4T1 Nectin-4 positive; clone 4T1-D02). Tumor cells were cultured to 80% confluency in vitro in RPMI1640 medium supplemented with 10% heat-inactivated FBS, 1× Penicillin/Streptomycin, 1×L-Glutamine, 20 mM HEPES and 1×NEAA (RPMI working medium). Tumor cells were trypsinized and washed two times at 1500 rpm for 5 minutes in RPMI1640 working medium prewarmed to 37° C. Count cells and resuspend at 2,000,000 cells/mL in R5 media (for 10,000 cells/well). Add 5 μL of tumour cells per well.
Proceed to dilute agonists at concentration giving the maximum fold induction and then titrate down the amount in a sterile 96 well-plate. Prepare enough reagent for duplicate samples and then perform ⅓ dilution series or 1/10 dilution series. Include positive control OX40L trimer (AcroBiosystems, R&D systems) and negative control monomeric or non-binding peptides. Add 20 μl of agonist as duplicate samples or 5% FBS RPMI-1640 alone as background control.
Co-incubate cells together with agonists for 6 hours at 37° C., 5% CO2. After 6 hours, thaw Bio-Glo™ and develop the assay at room-temperature. Add 80 μl Bio-Glo™ per well and incubate 5-10 min. Read luciferase signal on CLAIROStar plate-reader using the MARS program and normalize the fold induction relative to background (medium alone). Analyse data by transforming the data to x=log (X), then plot log (agonist) vs. response variable slope (4 parameters) to calculate EC50 values.

human PBMCs = assay: Human PBMC - tumor cell co-culture assay (IL-2 by HTRF); format: cell-based; conditions: anti-CD3 and anti-CD28 stimulation, 48 hours
Experimental: 4T1, a Nectin-4 negative murine mammary gland epithelial cancer cell (4T1 Nectin-4 −ve; 4T1-Parental) and its genetically modified version expressing murine Nectin-4 on the cell surface (4T1 Nectin-4 +ve; clone 4T1-D02) were cultured to 80% confluency in vitro in RPMI1640 medium supplemented with 10% heat-inactivated FBS, 1× Penicillin/Streptomycin, 1× L-Glutamine, 20 mM HEPES and 1×NEAA (RPMI working medium). Tumor cells were trypsinized and washed two times at 1500 rpm for 5 minutes in RPMI1640 working medium prewarmed to 37° C. Four thousand tumor cells in 25 μl were plated per well in a sterile 384 well cell culture plate. Frozen human PBMCs were thawed and washed one time at 1250 rpm for 5 minutes in prewarmed RPMI1640 working medium. 20000 viable PBMCs in 50 μl RPMI1640 working medium supplemented with 250 ng/ml (2× concentration) of human anti-CD3 (clone OKT3) and 500 ng/ml (2× concentration) of human anti-CD28 (clone CD28.2) were added per respective wells containing tumor cells in 25 μl medium to obtain a […] ratio for tumor cells and PBMCs. Test compounds in DMSO were diluted in RPMI1640 working medium. An equivalent amount of DMSO was added to assay controls. […] Culture supernatant was collected at 48 hours post-treatment, and IL-2 concentrations were measured using HTRF assays (CIS Bio). Data were analyzed using GraphPad Prism.

CSCC[C@@H]1NC(=O)[C@@H]2CSCCC(=O)N3CN(CN(C3)C(=O)CCSC[C@H](NC(=O)CCOCCOCCOCCOCCOCCOCCOCCOCCOCCOCCOCCOCCn3cc(CCC(=O)NCCCC[C@H](NC(=O)[C@H](C)NC(=O)[C@@H]4CSCCC(=O)N5CN6CN(C5)C(=O)CCSC[C@H](NC(=O)[C@@H]5CCCN5C(=O)[C@H](CO)NC(=O)[C@H](Cc5ccc(O)cc5)NC(=O)[C@H](CC(C)C)NC(=O)[C@@H](NC(=O)[C@H](C)N)CSCCC6=O)C(=O)N[C@@H](Cc5c[nH]c6ccccc56)C(=O)N[C@@H](Cc5c[nH]cn5)C(=O)N5CCC[C@H]5C(=O)N[C@@H](CC(C)C)C(=O)N[C@@H](CC(N)=O)C(=O)N[C@@H](CC(=O)O)C(=O)N4)C(N)=O)nn3)C(=O)N3CCC[C@H]3C(=O)N[C@@H](Cc3cccc4ccccc34)C(=O)N[C@H](CC(=O)O)C(=O)N2)C(=O)CCSC[C@@H](C(N)=O)NC(=O)[C@H](Cc2c[nH]c3ccccc23)NC(=O)[C@@H]2C[C@@H](O)CN2C(=O)[C@@H]2CCCN2C(=O)[C@H]([C@@H](C)O)NC(=O)[C@H](CO)NC(=O)[C@H](Cc2c[nH]c3ccccc23)NC(=O)[C@H](CC(=O)O)NC(=O)[C@H](CCCCNC(=N)N)NC1=O [BCY12141]
OX40 agonism in co-culture (OX40): potent OX40 agonism
IL-2 levels (human PBMCs; 4T1 cells without Nectin-4 expression): comparable to the control baseline CD3+CD28 stimulation
production of the cytokine IL-2 by human PBMCs (human PBMCs; Nectin-4 expressing 4T1 cells): induced the production of the cytokine IL-2

CSCC[C@@H]1NC(=O)[C@@H]2CSCCC(=O)N3CN(CN(C3)C(=O)CCSC[C@H](NC(=O)CCOCCOCCOCCOCCOCCn3cc(CCC(=O)NCCCC[C@H](NC(=O)[C@H](C)NC(=O)[C@@H]4CSCCC(=O)N5CN6CN(C5)C(=O)CCSC[C@H](NC(=O)[C@@H]5CCCN5C(=O)[C@H](CO)NC(=O)[C@H](Cc5ccc(O)cc5)NC(=O)[C@H](CC(C)C)NC(=O)[C@@H](NC(=O)[C@H](C)NC(C)=O)CSCCC6=O)C(=O)N[C@@H](Cc5c[nH]c6ccccc56)C(=O)N[C@@H](Cc5c[nH]cn5)C(=O)N5CCC[C@H]5C(=O)N[C@@H](CC(C)C)C(=O)N[C@@H](CC(N)=O)C(=O)N[C@@H](CC(=O)O)C(=O)N4)C(N)=O)nn3)C(=O)N3CCC[C@H]3C(=O)N[C@@H](Cc3cccc4ccccc34)C(=O)N[C@H](CC(=O)O)C(=O)N2)C(=O)CCSC[C@@H](C(N)=O)NC(=O)[C@H](Cc2c[nH]c3ccccc23)NC(=O)[C@@H]2C[C@@H](O)CN2C(=O)[C@@H]2CCCN2C(=O)[C@H]([C@@H](C)O)NC(=O)[C@H](CO)NC(=O)[C@H](Cc2c[nH]c3ccccc23)NC(=O)[C@H](CC(=O)O)NC(=O)[C@H](CCCCNC(=N)N)NC1=O [BCY12721]
OX40 agonism in co-culture (OX40): potent OX40 agonism

CSCC[C@@H]1NC(=O)[C@@H]2CSCCC(=O)N3CN(CN(C3)C(=O)CCSC[C@H](NC(=O)CCOCCOCCOCCN(CCOCCOCCOCCn3cc(CCC(=O)NCCCC[C@H](NC(=O)[C@H](C)NC(=O)[C@@H]4CSCCC(=O)N5CN6CN(C5)C(=O)CCSC[C@H](NC(=O)[C@@H]5CCCN5C(=O)[C@H](CO)NC(=O)[C@H](Cc5ccc(O)cc5)NC(=O)[C@H](CC(C)C)NC(=O)[C@@H](NC(=O)[C@H](C)N)CSCCC6=O)C(=O)N[C@@H](Cc5c[nH]c6ccccc56)C(=O)N[C@@H](Cc5c[nH]cn5)C(=O)N5CCC[C@H]5C(=O)N[C@@H](CC(C)C)C(=O)N[C@@H](CC(N)=O)C(=O)N[C@@H](CC(=O)O)C(=O)N4)C(N)=O)nn3)CCOCCOCCOCCn3cc(CCC(=O)NCCCC[C@H](NC(=O)[C@H](C)NC(=O)[C@@H]4CSCCC(=O)N5CN6CN(C5)C(=O)CCSC[C@H](NC(=O)[C@@H]5CCCN5C(=O)[C@H](CO)NC(=O)[C@H](Cc5ccc(O)cc5)NC(=O)[C@H](CC(C)C)NC(=O)[C@@H](NC(=O)[C@H](C)N)CSCCC6=O)C(=O)N[C@@H](Cc5c[nH]c6ccccc56)C(=O)N[C@@H](Cc5c[nH]cn5)C(=O)N5CCC[C@H]5C(=O)N[C@@H](CC(C)C)C(=O)N[C@@H](CC(N)=O)C(=O)N[C@@H](CC(=O)O)C(=O)N4)C(N)=O)nn3)C(=O)N3CCC[C@H]3C(=O)N[C@@H](Cc3cccc4ccccc34)C(=O)N[C@H](CC(=O)O)C(=O)N2)C(=O)CCSC[C@@H](C(N)=O)NC(=O)[C@H](Cc2c[nH]c3ccccc23)NC(=O)[C@@H]2C[C@@H](O)CN2C(=O)[C@@H]2CCCN2C(=O)[C@H]([C@@H](C)O)NC(=O)[C@H](CO)NC(=O)[C@H](Cc2c[nH]c3ccccc23)NC(=O)[C@H](CC(=O)O)NC(=O)[C@H](CCCCNC(=N)N)NC1=O [BCY12967]
OX40 agonism in co-culture (OX40): potent OX40 agonism
